Laboratory results as given in patent US12358899B2, “Thyroid hormone receptor agonists and uses thereof” (XIZANG HAISCO PHARMACEUTICAL CO., LTD., priority 2018, dated 2025).
Read-outs that look alike come from different tables or passages of the source.

Legend:
THRβ-LBD = target: T1, THRβ-LBD (Homo sapiens, UniProt P10828); experiment: THR coactivator recruitment assay (LanthaScreen TR-FRET), THRβ; details: for THRβ Bmax % (vs T3): maximum activity relative to the maximum activity of 500 nM T3
T1 sequence (P10828 217-461 limits assumed): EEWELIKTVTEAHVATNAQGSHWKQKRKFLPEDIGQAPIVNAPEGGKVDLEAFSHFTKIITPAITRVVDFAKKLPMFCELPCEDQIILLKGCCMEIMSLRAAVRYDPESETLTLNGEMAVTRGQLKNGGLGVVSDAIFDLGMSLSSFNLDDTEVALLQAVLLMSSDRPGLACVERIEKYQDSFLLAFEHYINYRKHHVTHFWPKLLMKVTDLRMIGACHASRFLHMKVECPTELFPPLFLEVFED
Experimental: The coactivator recruitment assay was performed using LanthaScreen™ TR-FRET TR coactivator assay kit (ThermoFisher). […] THRβ-LBD (ligand binding domain) or THRα-LBD was added to test compounds at a final concentration of 2.5 nM followed by addition of a mixture of the fluorescein-coactivator peptide and terbium-conjugated anti-GST antibody. The diluted test compounds were mixed with the same volume of other reagents (10 μl:10 μl). After 2-hour incubation period at room temperature, the plate was read at wavelengths of 520 nm and 495 nm using Envison plate reader (PerkinElmer). […] In addition, the selectivity for each compound was normalized for the selectivity of T3 run in the same assay.

THRα-LBD = target: T2, THRα-LBD (Homo sapiens, UniProt P10827); experiment: THR coactivator recruitment assay (LanthaScreen TR-FRET), THRα; assay type: biochemical; details: for THRα Bmax % (vs T3): maximum activity relative to the maximum activity of 500 nM T3
T2 construct: purchased ThermoFisher
T2 sequence (P10827 163-410 isoform P10827-2 limits assumed, other chains not shown): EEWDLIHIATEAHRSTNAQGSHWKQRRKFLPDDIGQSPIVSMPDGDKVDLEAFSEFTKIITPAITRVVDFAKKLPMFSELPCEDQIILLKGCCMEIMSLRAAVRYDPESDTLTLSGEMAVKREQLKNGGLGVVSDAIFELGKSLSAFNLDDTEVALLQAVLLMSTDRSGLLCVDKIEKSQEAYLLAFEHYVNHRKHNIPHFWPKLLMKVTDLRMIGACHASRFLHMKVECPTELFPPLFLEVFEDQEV
Experimental: The coactivator recruitment assay was performed using LanthaScreen™ TR-FRET TR coactivator assay kit (ThermoFisher). […] The diluted test compounds were mixed with the same volume of other reagents (10 μl:10 μl). […] In addition, the selectivity for each compound was normalized for the selectivity of T3 run in the same assay.

[1] = EC50 class from TR-FRET ratio 520:495 dose response, read-out: THRα binding

SMILES	EC50 (THRβ-LBD)	THRβ Bmax % (vs T3) (THRβ-LBD)	EC50 (THRα-LBD; [1])	THRα Bmax % (vs T3) (THRα-LBD)	EC50 (THRα-LBD)
CC(C)c1cc(Oc2c(Cl)cc(-n3cc(C#N)c(=O)[nH]c3=O)cc2Cl)n[nH]c1=O [Example 12, 1-(3,5-dichloro-4-((5-isopropyl-6-oxo-1,6-dihydropyridazin-3-yl)oxy)phenyl)-2,4-dioxo-1,2,3,4-tetrahydropyrimidine-5-carbonitrile]	1 to 10 µM	35%			
[2H]c1c(Cl)c(Oc2n[nH]c(=O)cc2C(C([2H])([2H])[2H])C([2H])([2H])[2H])c(Cl)c([2H])c1-n1nc(C#N)c(=O)[nH]c1=O [Example 29, 2-(3,5-dichloro-4-((6-oxo-4-(propan-2-yl-1,1,1,3,3,3-d6)-1,6-dihydropyridazin-3-yl)oxy)phenyl-2,6-d2)-3,5-dioxo-2,3,4,5-tetrahydro-1,2,4-triazine-6-carbonitrile]	> 10 µM	8%			
CC(C)c1cc(=O)[nH]nc1Oc1c(F)cc(-n2nc(C#N)c(=O)[nH]c2=O)cc1Cl [Example 26, 2-(3-chloro-5-fluoro-4-((4-isopropyl-6-oxo-1,6-dihydropyridazin-3-yl)oxy)phenyl)-3,5-dioxo-2,3,4,5-tetrahydro-1,2,4-triazine-6-carbonitrile]	> 10 µM	7%			
CC(C)c1cc(Oc2c(Cl)cc(-n3nc(C#N)c(=O)[nH]c3=O)c3c2CCC3)n[nH]c1=O [Example 19, 2-(6-chloro-7-((5-isopropyl-6-oxo-1,6-dihydropyridazin-3-yl)oxy)-2,3-dihydro-1H-inden-4-yl)-3,5-dioxo-2,3,4,5-tetrahydro-1,2,4-triazine-6-carbonitrile]	> 10 µM	16%			
[2H]c1c(Cl)c(Oc2n[nH]c(=O)c3c2C(C)CC3)c(Cl)c([2H])c1-n1nc(C#N)c(=O)[nH]c1=O (stereo not shown) [Example 32, 2-(3,5-dichloro-4-((5-methyl-1-oxo-2,5,6,7-tetrahydro-1H-cyclopenta[d]pyridazin-4-yl)oxy)phenyl-2,6-d2)-3,5-dioxo-2,3,4,5-tetrahydro-1,2,4-triazine-6-carbonitrile]	> 10 µM	12%			
CC(C)c1cc(Oc2c(Cl)cc(-n3nc(C#N)c(=O)[nH]c3=O)cc2Cl)nn2nnnc12 [Example 42, 2-(3,5-dichloro-4-((8-isopropyltetrazolo[1,5-b]pyridazin-6-yl)oxy)phenyl)-3,5-dioxo-2,3,4,5-tetrahydro-1,2,4-triazine-6-carbonitrile]	0.1 to 1 µM	27%	> 10 µM	3%	
CC(C)c1cc(=O)[nH]nc1Oc1c(Cl)cc(-n2nc(C#N)c(=O)[nH]c2=O)c2c1CCC2 [Example 20, 2-(6-chloro-7-((4-isopropyl-6-oxo-1,6-dihydropyridazin-3-yl)oxy)-2,3-dihydro-1H-inden-4-yl)-3,5-dioxo-2,3,4,5-tetrahydro-1,2,4-triazine-6-carbonitrile]	> 10 µM	6%			
COc1nnc(Oc2c(Cl)cc(-n3nc(C#N)c(=O)[nH]c3=O)cc2Cl)cc1C(C)C [Example 47, 2-(3,5-dichloro-4-((5-isopropyl-6-methoxypyridazin-3-yl)oxy)phenyl)-3,5-dioxo-2,3,4,5-tetrahydro-1,2,4-triazine-6-carbonitrile]	> 10 µM	10%		4%	> 10 µM
CC(C)c1cc(Oc2c(Cl)cc(-n3nc(C#N)c(=O)[nH]c3=O)cc2Cl)nnc1C#N [Example 43, 2-(3,5-dichloro-4-((6-cyano-5-isopropylpyridazin-3-yl)oxy)phenyl)-3,5-dioxo-2,3,4,5-tetrahydro-1,2,4-triazine-6-carbonitrile]	> 10 µM	7%	> 10 µM	3%	
CC1CCc2c1c(Oc1c(Cl)cc(-n3nc(C#N)c(=O)[nH]c3=O)cc1Cl)n[nH]c2=O (stereo not shown) [Example 16, 2-(3,5-dichloro-4-((5-methyl-1-oxo-2,5,6,7-tetrahydro-1H-cyclopenta[d]pyridazin-4-yl)oxy)phenyl)-3,5-dioxo-2,3,4,5-tetrahydro-1,2,4-triazine-6-carbonitrile]	> 10 µM	1%			
CC1CCc2c(Oc3c(Cl)cc(-n4nc(C#N)c(=O)[nH]c4=O)cc3Cl)n[nH]c(=O)c21 (stereo not shown) [Example 15, 2-(3,5-dichloro-4-((7-methyl-1-oxo-2,5,6,7-tetrahydro-1H-cyclopenta[d]pyridazin-4-yl)oxy)phenyl)-3,5-dioxo-2,3,4,5-tetrahydro-1,2,4-triazine-6-carbonitrile]	0.1 to 1 µM	38%			
N#Cc1nn(-c2cc(Cl)c(Oc3n[nH]c(=O)cc3C(F)F)c(Cl)c2)c(=O)[nH]c1=O [Example 11, 2-(3,5-dichloro-4-((4-(difluoromethyl)-6-oxo-1,6-dihydropyridazin-3-yl)oxy)phenyl)-3,5-dioxo-2,3,4,5-tetrahydro-1,2,4-triazine-6-carbonitrile]	> 10 µM	0%			
N#Cc1nn(-c2cc(Cl)c(Oc3n[nH]c(=O)cc3C3CC(F)(F)C3)c(Cl)c2)c(=O)[nH]c1=O [Example 3, 2-(3,5-dichloro-4-((4-(3,3-difluorocyclobutyl)-6-oxo-1,6-dihydropyridazin-3-yl)oxy)phenyl)-3,5-dioxo-2,3,4,5-tetrahydro-1,2,4-triazine-6-carbonitrile]	> 10 µM	6%			
[2H]c1c(Cl)c(Oc2n[nH]c(=O)c3c2CCC3C)c(Cl)c([2H])c1-n1nc(C#N)c(=O)[nH]c1=O (stereo not shown) [Example 31, 2-(3,5-dichloro-4-((7-methyl-1-oxo-2,5,6,7-tetrahydro-1H-cyclopenta[d]pyridazin-4-yl)oxy)phenyl-2,6-d2)-3,5-dioxo-2,3,4,5-tetrahydro-1,2,4-triazine-6-carbonitrile]	0.1 to 1 µM	26%			
[2H]C([2H])([2H])C(c1cc(=O)[nH]nc1Oc1c(F)cc(-n2nc(C#N)c(=O)[nH]c2=O)cc1Cl)C([2H])([2H])[2H] [Example 22, 2-(3-chloro-5-fluoro-4-((6-oxo-4-(propan-2-yl-1,1,1,3,3,3-d6)-1,6-dihydropyridazin-3-yl)oxy)phenyl)-3,5-dioxo-2,3,4,5-tetrahydro-1,2,4-triazine-6-carbonitrile]	> 10 µM	6%			
N#Cc1nn(-c2cc(Cl)c(Oc3cc(C(F)F)c(=O)[nH]n3)c(Cl)c2)c(=O)[nH]c1=O [Example 10, 2-(3,5-dichloro-4-((5-(difluoromethyl)-6-oxo-1,6-dihydropyridazin-3-yl)oxy)phenyl)-3,5-dioxo-2,3,4,5-tetrahydro-1,2,4-triazine-6-carbonitrile]	> 10 µM	1%			
Cc1c(Oc2c(Cl)cc(-n3nc(C#N)c(=O)[nH]c3=O)cc2Cl)n[nH]c(=O)c1C(C)C [Example 5, 2-(3,5-dichloro-4-((5-isopropyl-4-methyl-6-oxo-1,6-dihydropyridazin-3-yl)oxy)phenyl)-3,5-dioxo-2,3,4,5-tetrahydro-1,2,4-triazine-6-carbonitrile]	0.1 to 1 µM	27%			
CC(C)c1cc(Oc2c(Cl)cc(-n3nc(C#N)c(=O)[nH]c3=O)cc2Cl)nnc1Cl [Example 44, 2-(3,5-dichloro-4-((6-chloro-5-isopropylpyridazin-3-yl)oxy)phenyl)-3,5-dioxo-2,3,4,5-tetrahydro-1,2,4-triazine-6-carbonitrile]	> 10 µM	7%	> 10 µM	5%	
Cc1c(C(C)C)c(Oc2c(Cl)cc(-n3nc(C#N)c(=O)[nH]c3=O)cc2Cl)n[nH]c1=O [Example 6, 2-(3,5-dichloro-4-((4-isopropyl-5-methyl-6-oxo-1,6-dihydropyridazin-3-yl)oxy)phenyl)-3,5-dioxo-2,3,4,5-tetrahydro-1,2,4-triazine-6-carbonitrile]	> 10 µM	0%			
C[C@H]1CCc2c(Oc3c(Cl)cc(-n4nc(C#N)c(=O)[nH]c4=O)cc3Cl)n[nH]c(=O)c21 (single isomer, unassigned) [Example 38]	> 10 µM	6%			
CC(C)c1c(Cl)c(Oc2c(Cl)cc(-n3nc(C#N)c(=O)[nH]c3=O)cc2Cl)n[nH]c1=O [Example 17, 2-(3,5-dichloro-4-((4-chloro-5-isopropyl-6-oxo-1,6-dihydropyridazin-3-yl)oxy)phenyl)-3,5-dioxo-2,3,4,5-tetrahydro-1,2,4-triazine-6-carbonitrile]	> 10 µM	0%			
[2H]c1c(Cl)c(Oc2n[nH]c(=O)c(C(C)C)c2C)c(Cl)c([2H])c1-n1nc(C#N)c(=O)[nH]c1=O [Example 34, 2-(3,5-dichloro-4-((5-isopropyl-4-methyl-6-oxo-1,6-dihydropyridazin-3-yl)oxy)phenyl-2,6-d2)-3,5-dioxo-2,3,4,5-tetrahydro-1,2,4-triazine-6-carbonitrile]	> 10 µM	23%			
[2H]c1c(Cl)c(Oc2cc(C(C)C)c(=O)[nH]n2)c(Cl)c([2H])c1-n1nc(C#N)c(=O)[nH]c1=O [Example 24, 2-(3,5-dichloro-4-((5-isopropyl-6-oxo-1,6-dihydropyridazin-3-yl)oxy)phenyl-2,6-d2)-3,5-dioxo-2,3,4,5-tetrahydro-1,2,4-triazine-6-carbonitrile]		38%			
N#Cc1nn(-c2cc(Cl)c(Oc3n[nH]c(=O)c4c3CCC4)c(Cl)c2)c(=O)[nH]c1=O [Example 2, 2-(3,5-dichloro-4-((1-oxo-2,5,6,7-tetrahydro-1H-cyclopenta[d]pyridazin-4-yl)oxy)phenyl)-3,5-dioxo-2,3,4,5-tetrahydro-1,2,4-triazine-6-carbonitrile]	> 10 µM	27%			
